Test results from patent publication US20240400564A1 (Syndax Pharmaceuticals, Inc, priority 2021, published 2024).
Where two headings read alike, the source gives them in different places.

Columns and labels:
[1] = tested on: MLLr leukemia cell line MV4-11; assay: Cell proliferation assay MV4;11 (CellTiter-Glo, 72 hours); type: cell-based; details: Homo sapiens, read-out: MV4
How it was run: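 Cells in IMDM/10% FBS, seeded from a 15,000 cells/ml suspension, were exposed for 72 h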

hERG = hERG (Homo sapiens, UniProt Q12809); assay: Patch clamp assay (hERG tail currents, whole-cell)
[2] = MV4-11 cells, 72 hours, CellTiter-Glo, 11 IC50

Sequence of hERG (Q12809 whole entry): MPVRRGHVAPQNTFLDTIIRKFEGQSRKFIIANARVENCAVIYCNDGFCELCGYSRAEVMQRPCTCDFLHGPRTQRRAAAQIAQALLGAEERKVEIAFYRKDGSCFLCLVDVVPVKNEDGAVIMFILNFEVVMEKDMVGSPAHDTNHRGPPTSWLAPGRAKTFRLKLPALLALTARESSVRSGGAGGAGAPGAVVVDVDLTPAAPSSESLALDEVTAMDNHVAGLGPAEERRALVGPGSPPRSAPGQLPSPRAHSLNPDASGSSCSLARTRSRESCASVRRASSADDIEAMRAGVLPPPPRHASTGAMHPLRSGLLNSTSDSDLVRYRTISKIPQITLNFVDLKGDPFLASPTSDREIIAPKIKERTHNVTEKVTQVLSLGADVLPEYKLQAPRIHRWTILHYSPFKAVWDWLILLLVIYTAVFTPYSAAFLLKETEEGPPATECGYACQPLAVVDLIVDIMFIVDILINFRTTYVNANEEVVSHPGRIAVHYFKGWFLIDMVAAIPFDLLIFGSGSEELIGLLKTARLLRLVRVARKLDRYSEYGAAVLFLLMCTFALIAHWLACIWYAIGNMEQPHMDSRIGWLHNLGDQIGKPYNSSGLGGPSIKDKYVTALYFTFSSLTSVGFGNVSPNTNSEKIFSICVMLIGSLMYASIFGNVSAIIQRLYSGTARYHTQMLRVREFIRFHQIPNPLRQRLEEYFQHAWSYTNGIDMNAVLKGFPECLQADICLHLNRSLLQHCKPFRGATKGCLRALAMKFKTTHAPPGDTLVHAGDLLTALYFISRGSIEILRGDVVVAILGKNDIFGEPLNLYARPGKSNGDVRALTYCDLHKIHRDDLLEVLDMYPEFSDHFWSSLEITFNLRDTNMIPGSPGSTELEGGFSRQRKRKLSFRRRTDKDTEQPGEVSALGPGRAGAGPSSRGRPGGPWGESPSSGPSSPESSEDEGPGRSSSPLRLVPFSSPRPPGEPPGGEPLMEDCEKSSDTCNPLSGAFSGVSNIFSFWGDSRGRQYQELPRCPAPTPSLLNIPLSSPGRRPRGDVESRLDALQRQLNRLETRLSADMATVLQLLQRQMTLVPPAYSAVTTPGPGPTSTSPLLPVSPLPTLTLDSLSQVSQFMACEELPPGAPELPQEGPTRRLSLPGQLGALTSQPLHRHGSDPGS

SMILES | IC50 [1, 2] [nM] | hERG % Remaining (hERG; 10 μM compound) | hERG % Remaining (hERG; 30 μM compound) | IC50 ([1]; MV4-11, 72 h, 11 IC50 (nM)) [nM]
Cc1ncc(S(=O)(=O)N[C@@H]2CC[C@@H](CN3CCC4(CC3)CN(c3ncncc3Oc3ccc(F)cc3C(=O)N(C(C)C)C(C)C)C4)OC2)o1 [Example 80, 5-Fluoro-N,N-diisopropyl-2-((4-(7-(((2S,5R)-5-((2-methyloxazole)-5-sulfonamido)tetrahydro-2H-pyran-2-yl)methyl)-2,7-diazaspiro[3.5]nonan-2-yl)pyrimidin-5-yl)oxy)benzamide] | < 100 | ++ (233% and ≤66%) | + (<33%) | –
CO[C@H]1CCN(S(=O)(=O)N[C@@H]2CC[C@@H](CN3CCC4(CC3)CN(c3ncncc3Oc3ccc(F)cc3C(=O)N(C(C)C)C(C)C)C4)OC2)C1 [Example 210, 5-Fluoro-N,N-diisopropyl-2-((4-(7-(((2S,5R)-5-(((S)-3-methoxypyrrolidine)-1-sulfonamido)tetrahydro-2H-pyran-2-yl)methyl)-2,7-diazaspiro[3.5]nonan-2-yl)pyrimidin-5-yl)oxy)benzamide] | < 100 | – | +++ (≥66%) | –
CCN(C(=O)c1cc(F)ccc1Oc1cncnc1N1CC2(CCN(C[C@@H]3CC[C@@H](NS(=O)(=O)N4CCC[C@@H]4C)CO3)CC2)C1)C(C)C [Example 201, N-Ethyl-5-fluoro-N-isopropyl-2-((4-(7-(((2S,5R)-5-(((S)-2-methylpyrrolidine)-1-sulfonamido)tetrahydro-2H-pyran-2-yl)methyl)-2,7-diazaspiro[3.5]nonan-2-yl)pyrimidin-5-yl)oxy)benzamide] | < 100 | + (<33%) | + (<33%) | –
CCN(C(=O)c1cc(F)ccc1Oc1cncnc1N1CC2(CCN(C[C@@H]3CC[C@@H](NS(=O)(=O)c4c[nH]c(=O)cc4C)CO3)CC2)C1)C(C)C [Example 75, N-Ethyl-5-fluoro-N-isopropyl-2-((4-(7-(((2S,5R)-5-((4-methyl-6-oxo-1,6-dihydropyridine)-3-sulfonamido)tetrahydro-2H-pyran-2-yl)methyl)-2,7-diazaspiro[3.5]nonan-2-yl)pyrimidin-5-yl)oxy)benzamide] | < 100 | – | +++ (≥66%) | –
CC(C)N(CC(F)F)C(=O)c1cc(F)ccc1Oc1cncnc1N1CC2(CCN(C[C@@H]3CC[C@@H](NS(=O)(=O)c4ccn(C)n4)CO3)CC2)C1 [Example 103, N-(2,2-Difluoroethyl)-5-fluoro-N-isopropyl-2-((4-(7-(((2S,5R)-5-((1-methyl-1H-pyrazole)-3-sulfonamido)tetrahydro-2H-pyran-2-yl)methyl)-2,7-diazaspiro[3.5]nonan-2-yl)pyrimidin-5-yl)oxy)benzamide] | < 100 | – | +++ (≥66%) | –
CC(C)N(C(=O)c1cc(F)ccc1Oc1cncnc1N1CC2(CCN(C[C@@H]3CC[C@@H](NS(=O)(=O)c4ccn(C)n4)CO3)CC2)C1)C(C)C [Example 87, 5-Fluoro-N,N-diisopropyl-2-((4-(7-(((2S,5R)-5-((1-methyl-1H-pyrazole)-3-sulfonamido)tetrahydro-2H-pyran-2-yl)methyl)-2,7-diazaspiro[3.5]nonan-2-yl)pyrimidin-5-yl)oxy)benzamide] | < 100 | – | +++ (≥66%) | –
CC(C)N(C(=O)c1cc(F)ccc1Oc1cncnc1N1CC2(CCN(C[C@@H]3CC[C@@H](NS(=O)(=O)N4CCC[C@H]4C)CO3)CC2)C1)C(C)C [Example 203, 5-Fluoro-N,N-diisopropyl-2-((4-(7-(((2S,5R)-5-(((R)-2-methylpyrrolidine)-1-sulfonamido)tetrahydro-2H-pyran-2-yl)methyl)-2,7-diazaspiro[3.5]nonan-2-yl)pyrimidin-5-yl)oxy)benzamide] | < 100 | – | + (<33%) | –
CCN(C(=O)c1cc(F)ccc1Oc1cncnc1N1CC2(CCN(C[C@@H]3CC[C@@H](NS(=O)(=O)N4CCC[C@H]4C)CO3)CC2)C1)C(C)C [Example 200, N-Ethyl-5-fluoro-N-isopropyl-2-((4-(7-(((2S,5R)-5-(((R)-2-methylpyrrolidine)-1-sulfonamido)tetrahydro-2H-pyran-2-yl)methyl)-2,7-diazaspiro[3.5]nonan-2-yl)pyrimidin-5-yl)oxy)benzamide] | < 100 | ++ (233% and ≤66%) | + (<33%) | –
CCN(C(=O)c1cc(F)ccc1Oc1cncnc1N1CC2(CCN(C[C@@H]3CC[C@@H](NS(=O)(=O)c4cnc(C)o4)CO3)CC2)C1)C(C)C [Example 72, N-Ethyl-5-fluoro-N-isopropyl-2-((4-(7-(((2S,5R)-5-((2-methyloxazole)-5-sulfonamido)tetrahydro-2H-pyran-2-yl)methyl)-2,7-diazaspiro[3.5]nonan-2-yl)pyrimidin-5-yl)oxy)benzamide] | < 100 | ++ (233% and ≤66%) | + (<33%) | –
CC(C)N(C(=O)c1cc(F)ccc1Oc1cncnc1N1CC2(CCN(C[C@@H]3CC[C@@H](NS(=O)(=O)N4CC5COCC5C4)CO3)CC2)C1)C(C)C (stereo partly drawn) [Example 224, 5-Fluoro-2-((4-(7-(((2S,5R)-5-((hexahydro-1H-furo[3,4-c]pyrrole)-5-sulfonamido)tetrahydro-2H-pyran-2-yl)methyl)-2,7-diazaspiro[3.5]nonan-2-yl)pyrimidin-5-yl)oxy)-N,N-diisopropylbenzamide] | < 100 | – | +++ (≥66%) | –
CC(C)N(C(=O)c1cc(F)ccc1Oc1cncnc1N1CC2(CCN(C[C@@H]3CC[C@@H](NS(=O)(=O)c4cnn(C)c4)CO3)CC2)C1)C(C)C [Example 86, 5-Fluoro-N,N-diisopropyl-2-((4-(7-(((2S,5R)-5-((1-methyl-1H-pyrazole)-4-sulfonamido)tetrahydro-2H-pyran-2-yl)methyl)-2,7-diazaspiro[3.5]nonan-2-2-yl)pyrimidin-5-yl)oxy)benzamide] | < 100 | +++ (≥66%) | +++ (≥66%) | –
C[C@@H]1COC[C@@H](C)N1C(=O)c1cc(F)ccc1Oc1cncnc1N1CC2(CCN(C[C@@H]3CC[C@@H](NS(=O)(=O)N4CCC[C@H]4C)CO3)CC2)C1 [Example 208, (R)-N-((3R,6S)-6-((2-(5-(2-((3R,5R)-3,5-Dimethylmorpholine-4-carbonyl)-4-fluorophenoxy)pyrimidin-4-yl)-2,7-diazaspiro[3.5]nonan-7-yl)methyl)tetrahydro-2H-pyran-3-yl)-2-methylpyrrolidine-1-sulfonamide] | < 100 | – | +++ (≥66%) | –
CO[C@@H]1CCN(S(=O)(=O)N[C@@H]2CC[C@@H](CN3CCC4(CC3)CN(c3ncncc3Oc3ccc(F)cc3C(=O)N(C(C)C)C(C)C)C4)OC2)C1 [Example 211, 5-Fluoro-N,N-diisopropyl-2-((4-(7-(((2S,5R)-5-(((R)-3-methoxypyrrolidine)-1-sulfonamido)tetrahydro-2H-pyran-2-yl)methyl)-2,7-diazaspiro[3.5]nonan-2-yl)pyrimidin-5-yl)oxy)benzamide] | < 100 | – | +++ (≥66%) | –
CCN(C(=O)c1cc(F)ccc1Oc1cncnc1N1CC2(CCN(C[C@@H]3CC[C@@H](NS(=O)(=O)c4cnn(C)c4)CO3)CC2)C1)C(C)C [Example 68, N-Ethyl-5-fluoro-N-isopropyl-2-((4-(7-(((2S,5R)-5-((1-methyl-1H-pyrazole)-4-sulfonamido)tetrahydro-2H-pyran-2-yl)methyl)-2,7-diazaspiro[3.5]nonan-2-yl)pyrimidin-5-yl)oxy)benzamide] | < 100 | +++ (≥66%) | +++ (≥66%) | –
CCS(=O)(=NC)N[C@@H]1CC[C@@H](CN2CCC3(CC2)CN(c2ncncc2Oc2ccc(F)cc2C(=O)N(C(C)C)C(C)C)C3)OC1 (stereo partly drawn) [Example 231, 5-Fluoro-N,N-diisopropyl-2-((4-(7-(((2S,5R)-5-(N′-methylethylsulfonoamidimidamido)tetrahydro-2H-pyran-2-yl)methyl)-2,7-diazaspiro[3.5]nonan-2-yl)pyrimidin-5-yl)oxy)benzamide] | – | – | +++ (≥66%) | < 100
Cc1nc(S(=O)(=O)N[C@@H]2CC[C@@H](CN3CCC4(CC3)CN(c3ncncc3Oc3ccc(F)cc3C(=O)N(C(C)C)C(C)C)C4)OC2)cs1 [Example 81, 5-Fluoro-N,N-diisopropyl-2-((4-(7-(((2S,5R)-5-((2-methylthiazole)-4-sulfonamido)tetrahydro-2H-pyran-2-yl)methyl)-2,7-diazaspiro[3.5]nonan-2-yl)pyrimidin-5-yl)oxy)benzamide] | < 100 | ++ (233% and ≤66%) | ++ (233% and ≤66%) | –
CC(C)N(C(=O)c1cc(F)ccc1Oc1cncnc1N1CC2(CCN(C[C@@H]3CC[C@@H](NS(=O)(=O)c4cnn(C(F)F)c4)CO3)CC2)C1)C(C)C [Example 85, 2-((4-(7-(((2S,5R)-5-((1-(Difluoromethyl)-1H-pyrazole)-4-sulfonamido)tetrahydro-2H-pyran-2-yl)methyl)-2,7-diazaspiro[3.5]nonan-2-yl)pyrimidin-5-yl)oxy)-5-fluoro-N,N-diisopropylbenzamide] | < 100 | ++ (233% and ≤66%) | + (<33%) | –
CCN(C(=O)c1cc(F)ccc1Oc1cncnc1N1CC2(CCN(C[C@@H]3CC[C@@H](NS(=O)(=O)c4ccc(=O)[nH]c4C)CO3)CC2)C1)C(C)C [Example 217, N-Ethyl-5-fluoro-N-isopropyl-2-((4-(7-(((2S,5R)-5-((2-methyl-6-oxo-1,6-dihydropyridine)-3-sulfonamido)tetrahydro-2H-pyran-2-yl)methyl)-2,7-diazaspiro[3.5]nonan-2-yl)pyrimidin-5-yl)oxy)benzamide] | < 100 | – | +++ (≥66%) | –
